# Assay results taken from patent publication US20210267978A1, “NANOPARTICLE FORMULATIONS OF IKE AND METHODS OF USE THEREOF” (The Trustees of Columbia University in the City of New York, priority 2018, published 2021).
# What was measured:
# [1] = system: SUDHL6 cells; experiment: C-11 BODIPY lipid peroxidation measurement (flow cytometry); type: cell-based; conditions: different concentrations of IKE
# Description: 0.20 million SUDHL-6 cells were seeded in sixc^− well plates and treated with DMSO, IKE, or Fer-1 at specific concentration. The final cell density of 0.05 million cells/mL. After 24 h, cells were harvested by centrifuging at 300×g for 5 min. Cells were resuspended in 500 μL HBSS containing 2 μM C11-BODIPY (BODIPY 581/591 C11) (Thermo Fisher Scientific, D3861) and incubated at 37° C. for 15 min. Cells were pelleted and resuspended in HBSS. Fluorescence intensity was measured on the FL1 channel with gating to record live cells only (gate constructed from DMSO treatment group). A minimum of 10,000 cells were analyzed per condition.
# [2] = system: SUDHL6 xenograft tumor tissue; experiment: Immunofluorescence on frozen tumor sections from efficacy study (COX-2, MDA, 8-OHdG); type: in vivo, NCG mice
# Description: (§1) NCG mice, 6-weeks old, were injected with 10 million SUDHLO-6 cells subcutaneously. The mice were treated after the tumor size reached 100 mm^3. Mice were separated randomly into treatment groups and dosed with 23 mg/kg IKE, 40 mg/kg IKE, 23 mg/kg IKE PEG-PLGA nanoparticles (equal to 700 mg/kg PEG-PLGA), vehicle 1 (based on volume), and vehicle 2 (700 mg/kg PEG-PLGA) once daily by IP for 14 days. Tumor volume was measured daily with electronic caliper and calculated using the formula: 0.5×length×width^2. 3 h after the final dosage, mice were euthanized with CO2 and tumor tissue was dissected, weighed, divided into 4-6 segments, frozen, and stored at −80° C. Tumor volume change was analyzed in Prism using one-way ANOVA. Tumor tissues were analyzed as described in the RT-qPCR, immunofluorescence, TBARS, and lipidomics sections below.
# Tumor tissues were fixed in 4% paraformaldehyde (PFA) for 24 h at 4° C. followed by washing with PBS three times. The tissues were perfused in 30% sucrose for 24 h at 4° C. for cryo-protection. The samples were embedded in OCT cryostat sectioning medium, and then moved directly into a cryostat. After equilibration of temperature, frozen tumor tissues were cut into 5 μm thick sections. Tissue sections were mounted on to poly-L-lysine coated slides by placing the cold sections onto warm slides. Slides were stored at −80° C. until staining. For staining, slides were warmed to room temperature followed by washing with PBS twice. A hydrophobic barrier pen was used to draw a circle on each slide. The slides were permeabilized with PBS/0.4% Triton X-100 twice before non-specific-binding blocking by incubating the sections with 10% goat serum (ThermoFisher 50197Z) for 30 minutes at room temperature. The sections were separately incubated with mouse anti-MDA mAb 1F83 (1:1000 dilution), anti-cyclooxygenase 2 (COX 2, AKA PTGS2) antibody (Abcam, ab15191, 1:200 dilution), or anti-8-OH-dG (DNA/RNA damage) antibody (Abcam, ab62623, 1:200 dilution) overnight at 4° C. in humidified chambers. Sections were washed with PBST for twice before incubating with goat anti-mouse IgG H&L (Alexa Fluor 647) (Abcam, ab150115, 1:1000 dilution) or goat anti-rabbit IgG H&L highly cross-absorbed secondary antibody (Alexa Fluor488, Thermo Fisher Scientific, A-11034, 1:1000) at room temperature for 1 h. Slides were then washed twice with PBST. ProLong Diamond antifade mountant with DAPI (ThermoFisher P36962) was added onto slides, which were then covered with the coverslips, sealed by clear fingernail polish and observed under confocal microscopy. All images were captured on a Zeiss LSM 800 confocal microscope at Plan-Apochromat 63×/1.40 Oil DIC objective with constant laser intensity for all analyzed samples. The intensity above threshold of the fluorescent signal of the bound antibodies was analyzed using NIH ImageJ software. Data were expressed as fold change comparing with the vehicle.
# [3] = system: SUDHL6 cells; experiment: Immunofluorescence of MDA (mAb 1F83) on cells; type: cell-based; conditions: 10 μM IKE for 6 hours vs DMSO
# Description: SUDHL-6 cells were treated with IKE. The cells were harvested by centrifugation and washed with PBS once. The cells were resuspended in PBS, fixed by adding equal volume of 4% paraformaldehyde (PFA), and incubated at room temperature for 15 min. The cells were washed with PBS/0.1% Tween 20 (PBST) twice, resuspended in 10% goat serum (ThermoFisher 50197Z) for 1 h. The cells were incubated with mouse mAb 1F83, which specifically recognizes malondialdehyde (MDA)-lysine adduct 4-methyl-1,4-dihydropyridine-3,5-dicarbaldehyde (MDHDC) (Yamada et al. 2001, Hyvarinen et al. 2014) (1:100 dilution) overnight at 4° C. The cells were washed with PBS three times by centrifugation. The cells were incubated with goat anti-mouse IgG H&L (Alexa Fluor 647) (Abcam ab150115) (1:1000) at room temperature for 1 h. The cells were washed with PBST twice by centrifugation, then resuspended in PBS in 24-well plate with poly-lysine-(Sigma Aldrich P4832)-coated cover slips and centrifuged at 1,000×g for 10 min. […] When applicable, line-scan analysis was performed on representative confocal microscopy images using Zeiss LSM software to qualitatively visualize fluorescence overlap. The intensity above threshold of the fluorescent signal of the bound antibodies was analyzed using NIH ImageJ software. Data were expressed as fold change compared with the vehicle.
# [4] = system: SUDHL6 xenograft tumor tissue; experiment: TBARS measurement in mouse tumor tissue from efficacy study; type: in vivo, NCG mice
# Description: as §1
# 10-25 mg tumor tissue was placed into a 1.5 mL Eppendorf microfuge tube, and the sample was placed on dry ice until use. 20 μL/mg ice cold RIPA buffer with cocktail protease inhibitor (Roche) was added. The tumor tissue was homogenized at speed 5 for 30 sec using Bead Ruptor 4. The sample was centrifuged at 4° C. at 1,600×g for 10 min. The sample was kept on ice and the supernatant used for analysis. […] TBARS was measured using a TBARS Assay Kit (Cayman 700870) following the manufacture's protocol.
compound,measurement,setting,value
"CC(C)Oc1ccc(C(=O)Cn2ccnc2)cc1-n1c(CN2CCN(C(=O)COc3ccc(Cl)cc3)CC2)nc2ccccc2c1=O [IKE, Imidazole ketone erastin]",lipid ROS (C11-BODIPY),[1],dose-dependent increase in lipid ROS
same,increase in 8-OHdG intensity (immunofluorescence),[2]; 23 mg/kg daily for 14 days,1.8 fold
same,increase in COX-2 intensity (immunofluorescence),[2]; 23 mg/kg daily for 14 days,2.0 fold
same,increase in MDA intensity (immunofluorescence),[2]; 23 mg/kg daily for 14 days,1.8 fold
same,increase in 8-OHdG intensity (immunofluorescence),[2]; 40 mg/kg daily for 14 days,2.2 fold
same,increase in COX-2 intensity (immunofluorescence),[2]; 40 mg/kg daily for 14 days,2.8 fold
same,increase in MDA intensity (immunofluorescence),[2]; 40 mg/kg daily for 14 days,2.0 fold
same,MDA immunofluorescence intensity increase,[3],3.4 fold
same,"MDA increase (TBARS assay, MDA-TBA adducts' fluorescence)",[4]; 23 mg/kg daily for 14 days,1.4 fold
same,"MDA increase (TBARS assay, MDA-TBA adducts' fluorescence)",[4]; 40 mg/kg daily for 14 days,1.8 fold
